Laboratory results published in the kinase profiling compilation of Christmann-Franck et al. (2016).

Tests used:
Assay in all cases: KINOMEscan competition binding
Settings in all cases: compound 10.0 µM
CSNK1A1 (human) = CSNK1A1 (human) (UniProt P48729)
MAP3K6 (human) = MAP3K6 (human) (UniProt O95382)
BRSK2 (human) = BRSK2 (human) (UniProt Q8IWQ3)
CRK2 (P.falciparum) = CRK2 (P.falciparum) (UniProt P61075)
MYO3A (human) = MYO3A (human) (UniProt Q8NEV4)
GRK4 (human) = GRK4 (human) (UniProt P32298)
GRK4 (human), sequence (P32298 whole entry, looked up): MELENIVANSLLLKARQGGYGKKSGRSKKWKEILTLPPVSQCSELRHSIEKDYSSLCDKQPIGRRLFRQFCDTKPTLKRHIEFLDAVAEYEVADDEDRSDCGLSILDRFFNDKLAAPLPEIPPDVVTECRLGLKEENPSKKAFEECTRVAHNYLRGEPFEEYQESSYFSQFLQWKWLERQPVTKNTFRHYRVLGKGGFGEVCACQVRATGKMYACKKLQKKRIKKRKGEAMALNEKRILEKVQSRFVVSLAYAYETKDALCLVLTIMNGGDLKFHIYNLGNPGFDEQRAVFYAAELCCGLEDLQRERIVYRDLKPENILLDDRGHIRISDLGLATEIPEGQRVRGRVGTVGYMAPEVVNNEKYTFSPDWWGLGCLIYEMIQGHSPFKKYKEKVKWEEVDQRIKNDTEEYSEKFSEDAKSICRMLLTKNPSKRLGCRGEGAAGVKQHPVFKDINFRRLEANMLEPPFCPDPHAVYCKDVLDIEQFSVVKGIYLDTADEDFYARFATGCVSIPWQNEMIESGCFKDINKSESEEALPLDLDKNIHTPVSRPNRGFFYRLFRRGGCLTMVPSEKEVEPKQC

FGR (human) = FGR (human) (UniProt P09769)
EPHA3 (human) = EPHA3 (human) (UniProt P29320)
MKNK2 (human) = MKNK2 (human) (UniProt Q9HBH9)
PKN1 (human) = PKN1 (human) (UniProt Q16512)
PKN1 (human), sequence (Q16512 whole entry, looked up): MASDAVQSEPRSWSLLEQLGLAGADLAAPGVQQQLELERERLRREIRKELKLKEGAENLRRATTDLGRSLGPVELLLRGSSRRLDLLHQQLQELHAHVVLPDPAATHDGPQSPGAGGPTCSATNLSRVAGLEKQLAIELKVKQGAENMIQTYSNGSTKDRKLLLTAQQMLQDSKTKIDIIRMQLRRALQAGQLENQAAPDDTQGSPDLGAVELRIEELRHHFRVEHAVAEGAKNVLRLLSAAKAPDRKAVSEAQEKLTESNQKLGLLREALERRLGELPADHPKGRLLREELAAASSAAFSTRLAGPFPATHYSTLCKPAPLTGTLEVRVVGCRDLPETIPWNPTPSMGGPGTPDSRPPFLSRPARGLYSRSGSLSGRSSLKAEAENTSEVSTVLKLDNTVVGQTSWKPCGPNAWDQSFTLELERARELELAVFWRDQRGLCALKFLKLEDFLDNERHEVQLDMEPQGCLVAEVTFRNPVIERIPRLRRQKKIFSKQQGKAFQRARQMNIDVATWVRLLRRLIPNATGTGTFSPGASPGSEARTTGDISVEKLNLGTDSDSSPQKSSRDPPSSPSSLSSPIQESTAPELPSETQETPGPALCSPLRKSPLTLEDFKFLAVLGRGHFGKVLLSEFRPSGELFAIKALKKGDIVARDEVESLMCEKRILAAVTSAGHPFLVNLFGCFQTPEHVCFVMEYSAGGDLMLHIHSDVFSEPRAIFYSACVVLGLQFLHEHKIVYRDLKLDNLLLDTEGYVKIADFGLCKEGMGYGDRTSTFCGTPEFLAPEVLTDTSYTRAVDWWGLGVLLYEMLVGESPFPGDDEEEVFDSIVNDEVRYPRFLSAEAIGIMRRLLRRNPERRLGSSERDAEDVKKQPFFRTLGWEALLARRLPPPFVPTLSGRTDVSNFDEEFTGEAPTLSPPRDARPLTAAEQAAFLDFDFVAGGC

WEE1 (human) = WEE1 (human) (UniProt P30291)
WEE1 (human), sequence (P30291 whole entry, looked up): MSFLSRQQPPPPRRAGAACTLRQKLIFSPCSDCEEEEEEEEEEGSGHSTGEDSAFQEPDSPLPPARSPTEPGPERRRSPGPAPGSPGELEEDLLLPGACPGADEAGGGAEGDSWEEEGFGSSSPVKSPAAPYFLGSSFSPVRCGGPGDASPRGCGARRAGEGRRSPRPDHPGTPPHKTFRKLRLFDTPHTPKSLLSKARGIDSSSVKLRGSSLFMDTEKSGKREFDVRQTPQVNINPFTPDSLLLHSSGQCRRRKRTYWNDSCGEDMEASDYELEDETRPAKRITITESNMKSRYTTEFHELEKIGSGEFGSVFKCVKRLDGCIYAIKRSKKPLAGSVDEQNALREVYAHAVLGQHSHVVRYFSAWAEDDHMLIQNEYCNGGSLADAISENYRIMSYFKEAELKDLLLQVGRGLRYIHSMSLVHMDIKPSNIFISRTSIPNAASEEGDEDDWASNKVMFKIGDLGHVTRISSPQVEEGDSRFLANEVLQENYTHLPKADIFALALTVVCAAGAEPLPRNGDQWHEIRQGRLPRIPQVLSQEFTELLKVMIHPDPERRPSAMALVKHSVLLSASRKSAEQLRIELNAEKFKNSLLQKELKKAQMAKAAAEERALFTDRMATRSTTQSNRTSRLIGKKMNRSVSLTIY

CLK1 (human) = CLK1 (human) (UniProt P49759)
CSNK1G1 (human) = CSNK1G1 (human) (UniProt Q9HCP0)
CDC42BPA (human) = CDC42BPA (human) (UniProt Q5VT25)
PTK2 (human) = PTK2 (human) (UniProt Q05397)
PTK2 (human), sequence (Q05397 whole entry, looked up): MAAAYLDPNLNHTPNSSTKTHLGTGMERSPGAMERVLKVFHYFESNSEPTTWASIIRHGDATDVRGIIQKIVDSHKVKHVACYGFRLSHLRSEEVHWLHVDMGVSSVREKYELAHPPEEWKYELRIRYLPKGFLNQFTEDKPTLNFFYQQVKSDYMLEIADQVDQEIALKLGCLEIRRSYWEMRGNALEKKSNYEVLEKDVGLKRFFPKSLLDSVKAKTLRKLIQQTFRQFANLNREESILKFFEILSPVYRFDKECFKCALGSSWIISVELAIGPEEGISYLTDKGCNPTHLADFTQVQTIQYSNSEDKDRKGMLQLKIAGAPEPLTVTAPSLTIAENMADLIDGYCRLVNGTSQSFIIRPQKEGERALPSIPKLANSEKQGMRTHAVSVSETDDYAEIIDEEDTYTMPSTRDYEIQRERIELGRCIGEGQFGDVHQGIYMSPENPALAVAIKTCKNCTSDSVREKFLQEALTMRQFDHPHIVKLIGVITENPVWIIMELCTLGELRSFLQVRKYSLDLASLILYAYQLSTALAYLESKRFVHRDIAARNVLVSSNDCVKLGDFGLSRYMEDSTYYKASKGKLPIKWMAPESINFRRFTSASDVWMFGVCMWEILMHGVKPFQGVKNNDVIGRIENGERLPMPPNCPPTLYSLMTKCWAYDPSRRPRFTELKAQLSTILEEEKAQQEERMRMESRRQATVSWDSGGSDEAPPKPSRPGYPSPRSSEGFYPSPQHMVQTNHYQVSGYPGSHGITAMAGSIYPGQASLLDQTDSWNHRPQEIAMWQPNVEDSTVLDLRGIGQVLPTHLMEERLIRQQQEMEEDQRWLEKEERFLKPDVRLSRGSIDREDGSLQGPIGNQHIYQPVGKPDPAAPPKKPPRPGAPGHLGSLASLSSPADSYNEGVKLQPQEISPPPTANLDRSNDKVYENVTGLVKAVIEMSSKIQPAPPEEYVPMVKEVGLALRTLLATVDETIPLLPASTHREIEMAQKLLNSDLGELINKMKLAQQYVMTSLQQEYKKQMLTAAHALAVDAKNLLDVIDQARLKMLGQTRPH

[1] = system: RET (human), P07949 [M918T]
CAMKK1 (human) = CAMKK1 (human) (UniProt Q8N5S9)
MAPK14 (human) = MAPK14 (human) (UniProt Q16539)
TAOK3 (human) = TAOK3 (human) (UniProt Q9H2K8)
CDC42BPB (human) = CDC42BPB (human) (UniProt Q9Y5S2)
FGFR3 (human) = FGFR3 (human) (UniProt P22607)
IRAK3 (human) = IRAK3 (human) (UniProt Q9Y616)
ROCK1 (human) = ROCK1 (human) (UniProt Q13464)
SNRK (human) = SNRK (human) (UniProt Q9NRH2)
MATK (human) = MATK (human) (UniProt P42679)
INSR (human) = INSR (human) (UniProt P06213)
CAMK2A (human) = CAMK2A (human) (UniProt Q9UQM7)
CLK3 (human) = CLK3 (human) (UniProt P49761)
RPS6KA1 KD1 (human) = RPS6KA1 KD1 (human) (UniProt Q15418)
MAPK6 (human) = MAPK6 (human) (UniProt Q16659)
VRK2 (human) = VRK2 (human) (UniProt Q86Y07)
VRK2 (human), sequence (Q86Y07 whole entry, looked up): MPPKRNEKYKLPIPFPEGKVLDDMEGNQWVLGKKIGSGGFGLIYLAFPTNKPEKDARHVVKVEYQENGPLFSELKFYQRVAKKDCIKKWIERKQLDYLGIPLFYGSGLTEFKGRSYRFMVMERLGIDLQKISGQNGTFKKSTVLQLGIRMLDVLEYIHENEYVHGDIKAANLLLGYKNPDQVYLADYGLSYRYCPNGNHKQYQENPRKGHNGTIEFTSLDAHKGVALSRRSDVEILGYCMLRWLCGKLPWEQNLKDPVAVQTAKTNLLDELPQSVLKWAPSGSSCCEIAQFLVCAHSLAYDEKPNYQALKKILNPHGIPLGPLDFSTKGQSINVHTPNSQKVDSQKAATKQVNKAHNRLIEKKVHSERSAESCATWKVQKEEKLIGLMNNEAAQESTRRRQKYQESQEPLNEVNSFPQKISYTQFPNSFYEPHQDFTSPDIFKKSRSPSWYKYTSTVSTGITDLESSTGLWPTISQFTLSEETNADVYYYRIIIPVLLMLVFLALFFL

MKNK1 (human) = MKNK1 (human) (UniProt Q9BUB5)
MKNK1 (human), sequence (Q9BUB5 whole entry, looked up): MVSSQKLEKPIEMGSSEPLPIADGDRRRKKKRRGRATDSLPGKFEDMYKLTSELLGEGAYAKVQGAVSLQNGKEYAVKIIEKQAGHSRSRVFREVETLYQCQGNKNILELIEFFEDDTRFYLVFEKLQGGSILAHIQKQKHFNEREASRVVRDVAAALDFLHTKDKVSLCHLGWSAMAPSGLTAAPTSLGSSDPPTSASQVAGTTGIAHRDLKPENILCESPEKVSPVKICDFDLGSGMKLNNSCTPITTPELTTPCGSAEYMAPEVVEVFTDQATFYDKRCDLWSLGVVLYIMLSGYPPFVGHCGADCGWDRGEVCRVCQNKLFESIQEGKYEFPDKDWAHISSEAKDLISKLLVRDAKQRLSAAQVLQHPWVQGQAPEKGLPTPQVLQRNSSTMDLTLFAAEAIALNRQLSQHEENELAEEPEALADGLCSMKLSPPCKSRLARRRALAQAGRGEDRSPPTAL

MAP3K9 (human) = MAP3K9 (human) (UniProt P80192)
GRK1 (human) = GRK1 (human) (UniProt Q15835)
CSNK1E (human) = CSNK1E (human) (UniProt P49674)
CSNK1E (human), sequence (P49674 whole entry, looked up): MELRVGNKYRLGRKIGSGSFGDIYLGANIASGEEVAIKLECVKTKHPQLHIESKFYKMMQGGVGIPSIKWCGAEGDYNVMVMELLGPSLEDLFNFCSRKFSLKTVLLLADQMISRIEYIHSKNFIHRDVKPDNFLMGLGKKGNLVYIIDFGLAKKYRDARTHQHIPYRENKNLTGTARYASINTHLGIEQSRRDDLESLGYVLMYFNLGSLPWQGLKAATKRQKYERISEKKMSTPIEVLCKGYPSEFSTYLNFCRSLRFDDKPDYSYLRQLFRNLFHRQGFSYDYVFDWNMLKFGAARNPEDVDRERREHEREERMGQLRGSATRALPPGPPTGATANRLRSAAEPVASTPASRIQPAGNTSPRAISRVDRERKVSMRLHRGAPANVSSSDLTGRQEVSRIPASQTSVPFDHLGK

PKN3 (M.tuberculosis) = PKN3 (M.tuberculosis) (UniProt Q6P5Z2)
TSSK1B (human) = TSSK1B (human) (UniProt Q9BXA7)
TSSK1B (human), sequence (Q9BXA7 whole entry, looked up): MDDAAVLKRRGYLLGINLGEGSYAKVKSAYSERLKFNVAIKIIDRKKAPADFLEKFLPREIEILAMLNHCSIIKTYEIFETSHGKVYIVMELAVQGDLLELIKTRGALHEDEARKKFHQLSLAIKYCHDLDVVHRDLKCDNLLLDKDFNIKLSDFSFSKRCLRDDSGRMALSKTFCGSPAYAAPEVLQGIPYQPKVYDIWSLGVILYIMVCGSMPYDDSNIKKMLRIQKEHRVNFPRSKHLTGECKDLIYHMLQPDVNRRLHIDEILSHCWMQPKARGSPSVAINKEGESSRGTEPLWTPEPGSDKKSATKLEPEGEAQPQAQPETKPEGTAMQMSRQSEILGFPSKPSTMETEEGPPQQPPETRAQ

MAP4K1 (human) = MAP4K1 (human) (UniProt Q92918)
MLTK (human) = MLTK (human) (UniProt Q9NYL2)
MAP3K13 (human) = MAP3K13 (human) (UniProt O43283)

## O=C(Nc1cccc(Nc2ncc(Br)c(NCCc3cnc[nH]3)n2)c1)N1CCCC1
CSNK1A1 (human)
  kinase still bound, per cent of control: 28%
MAP3K6 (human)
  kinase still bound, per cent of control: 49%
BRSK2 (human)
  kinase still bound, per cent of control: 5.8%
CRK2 (P.falciparum)
  kinase still bound, per cent of control: 100%
MYO3A (human)
  kinase still bound, per cent of control: 28%
GRK4 (human)
  kinase still bound, per cent of control: 5.6%
FGR (human)
  kinase still bound, per cent of control: 13%
EPHA3 (human)
  kinase still bound, per cent of control: 21%
MKNK2 (human)
  kinase still bound, per cent of control: 0.1%
PKN1 (human)
  kinase still bound, per cent of control: 0.3%
WEE1 (human)
  kinase still bound, per cent of control: 52%
CLK1 (human)
  kinase still bound, per cent of control: 13%
CSNK1G1 (human)
  kinase still bound, per cent of control: 54%
CDC42BPA (human)
  kinase still bound, per cent of control: 95%
PTK2 (human)
  kinase still bound, per cent of control: 0.2%
[1]
  kinase still bound, per cent of control: 0.05%
CAMKK1 (human)
  kinase still bound, per cent of control: 8.8%
MAPK14 (human)
  kinase still bound, per cent of control: 100%
TAOK3 (human)
  kinase still bound, per cent of control: 0.1%
CDC42BPB (human)
  kinase still bound, per cent of control: 82%
FGFR3 (human)
  kinase still bound, per cent of control: 1%
IRAK3 (human)
  kinase still bound, per cent of control: 0.7%
ROCK1 (human)
  kinase still bound, per cent of control: 0.6%
SNRK (human)
  kinase still bound, per cent of control: 100%
MATK (human)
  kinase still bound, per cent of control: 40%
INSR (human)
  kinase still bound, per cent of control: 27%
CAMK2A (human)
  kinase still bound, per cent of control: 27%
CLK3 (human)
  kinase still bound, per cent of control: 74%
RPS6KA1 KD1 (human)
  kinase still bound, per cent of control: 4.3%
MAPK6 (human)
  kinase still bound, per cent of control: 5%
VRK2 (human)
  kinase still bound, per cent of control: 12%
MKNK1 (human)
  kinase still bound, per cent of control: 100%
MAP3K9 (human)
  kinase still bound, per cent of control: 0.45%
GRK1 (human)
  kinase still bound, per cent of control: 47%
CSNK1E (human)
  kinase still bound, per cent of control: 70%
PKN3 (M.tuberculosis)
  kinase still bound, per cent of control: 6.6%
TSSK1B (human)
  kinase still bound, per cent of control: 48%
MAP4K1 (human)
  kinase still bound, per cent of control: 13%
MLTK (human)
  kinase still bound, per cent of control: 12%
MAP3K13 (human)
  kinase still bound, per cent of control: 9.9%

## C=CC(=O)Nc1cc(-n2c(=O)ccc3cnc4ccc(-c5cn[nH]c5)cc4c32)ccc1C
CSNK1A1 (human)
  kinase still bound, per cent of control: 81%
MAP3K6 (human)
  kinase still bound, per cent of control: 75%
BRSK2 (human)
  kinase still bound, per cent of control: 67%
CRK2 (P.falciparum)
  kinase still bound, per cent of control: 100%
MYO3A (human)
  kinase still bound, per cent of control: 94%
GRK4 (human)
  kinase still bound, per cent of control: 84%
FGR (human)
  kinase still bound, per cent of control: 57%
EPHA3 (human)
  kinase still bound, per cent of control: 100%
MKNK2 (human)
  kinase still bound, per cent of control: 0.15%
PKN1 (human)
  kinase still bound, per cent of control: 100%
WEE1 (human)
  kinase still bound, per cent of control: 100%
CLK1 (human)
  kinase still bound, per cent of control: 0.4%
CSNK1G1 (human)
  kinase still bound, per cent of control: 86%
CDC42BPA (human)
  kinase still bound, per cent of control: 97%
PTK2 (human)
  kinase still bound, per cent of control: 96%
[1]
  kinase still bound, per cent of control: 51%
CAMKK1 (human)
  kinase still bound, per cent of control: 59%
MAPK14 (human)
  kinase still bound, per cent of control: 97%
TAOK3 (human)
  kinase still bound, per cent of control: 47%
CDC42BPB (human)
  kinase still bound, per cent of control: 97%
FGFR3 (human)
  kinase still bound, per cent of control: 89%
IRAK3 (human)
  kinase still bound, per cent of control: 0.7%
ROCK1 (human)
  kinase still bound, per cent of control: 94%
SNRK (human)
  kinase still bound, per cent of control: 100%
MATK (human)
  kinase still bound, per cent of control: 100%
INSR (human)
  kinase still bound, per cent of control: 90%
CAMK2A (human)
  kinase still bound, per cent of control: 21%
CLK3 (human)
  kinase still bound, per cent of control: 46%
RPS6KA1 KD1 (human)
  kinase still bound, per cent of control: 87%
MAPK6 (human)
  kinase still bound, per cent of control: 95%
VRK2 (human)
  kinase still bound, per cent of control: 88%
MKNK1 (human)
  kinase still bound, per cent of control: 39%
MAP3K9 (human)
  kinase still bound, per cent of control: 86%
GRK1 (human)
  kinase still bound, per cent of control: 75%
CSNK1E (human)
  kinase still bound, per cent of control: 88%
PKN3 (M.tuberculosis)
  kinase still bound, per cent of control: 12%
TSSK1B (human)
  kinase still bound, per cent of control: 87%
MAP4K1 (human)
  kinase still bound, per cent of control: 90%
MLTK (human)
  kinase still bound, per cent of control: 6.9%
MAP3K13 (human)
  kinase still bound, per cent of control: 84%

## COc1ccc(N(C(=O)Oc2c(C)cccc2C)c2ccnc(Nc3ccc(N4CCN(C)CC4)cc3)n2)c(OC)c1
CSNK1A1 (human)
  kinase still bound, per cent of control: 71%
MAP3K6 (human)
  kinase still bound, per cent of control: 93%
BRSK2 (human)
  kinase still bound, per cent of control: 81%
CRK2 (P.falciparum)
  kinase still bound, per cent of control: 100%
MYO3A (human)
  kinase still bound, per cent of control: 69%
GRK4 (human)
  kinase still bound, per cent of control: 7.9%
FGR (human)
  kinase still bound, per cent of control: 0.15%
EPHA3 (human)
  kinase still bound, per cent of control: 9.4%
MKNK2 (human)
  kinase still bound, per cent of control: 90%
PKN1 (human)
  kinase still bound, per cent of control: 15%
WEE1 (human)
  kinase still bound, per cent of control: 85%
CLK1 (human)
  kinase still bound, per cent of control: 84%
CSNK1G1 (human)
  kinase still bound, per cent of control: 95%
CDC42BPA (human)
  kinase still bound, per cent of control: 16%
PTK2 (human)
  kinase still bound, per cent of control: 32%
[1]
  kinase still bound, per cent of control: 0.1%
CAMKK1 (human)
  kinase still bound, per cent of control: 88%
MAPK14 (human)
  kinase still bound, per cent of control: 52%
TAOK3 (human)
  kinase still bound, per cent of control: 4%
CDC42BPB (human)
  kinase still bound, per cent of control: 2.9%
FGFR3 (human)
  kinase still bound, per cent of control: 1%
IRAK3 (human)
  kinase still bound, per cent of control: 19%
ROCK1 (human)
  kinase still bound, per cent of control: 65%
SNRK (human)
  kinase still bound, per cent of control: 100%
MATK (human)
  kinase still bound, per cent of control: 67%
INSR (human)
  kinase still bound, per cent of control: 100%
CAMK2A (human)
  kinase still bound, per cent of control: 84%
CLK3 (human)
  kinase still bound, per cent of control: 88%
RPS6KA1 KD1 (human)
  kinase still bound, per cent of control: 58%
MAPK6 (human)
  kinase still bound, per cent of control: 100%
VRK2 (human)
  kinase still bound, per cent of control: 100%
MKNK1 (human)
  kinase still bound, per cent of control: 98%
MAP3K9 (human)
  kinase still bound, per cent of control: 0.6%
GRK1 (human)
  kinase still bound, per cent of control: 100%
CSNK1E (human)
  kinase still bound, per cent of control: 23%
PKN3 (M.tuberculosis)
  kinase still bound, per cent of control: 90%
TSSK1B (human)
  kinase still bound, per cent of control: 87%
MAP4K1 (human)
  kinase still bound, per cent of control: 0.25%
MLTK (human)
  kinase still bound, per cent of control: 24%
MAP3K13 (human)
  kinase still bound, per cent of control: 70%
